Experimental data from ChEMBL document CHEMBL3877302, “Design and Synthesis of a New Series of 4-Heteroarylamino-1'-azaspiro[oxazole-5,3'-bicyclo[2.2.2]octanes as α7 Nicotinic Receptor Agonists. 1. Development of Pharmacophore and Early Structure-Activity Relationship” (J Med Chem, 2016).
The source made the active and inactive calls. No cut-off for these calls is given here.

How the values were obtained:
[1] = Selectivity ratio of IC50 for human 5-HT3A expressed in HEK293 cells to EC50 for rat alpha7 nAChR expressed in HEK293 cells co-expressing human RIC3; format: ADME, cell-based
[2] = molecular target: T1, 5-hydroxytryptamine receptor 3A (Homo sapiens, UniProt P46098); test: Antagonist activity at human 5-HT3A expressed in HEK293 cells assessed as reduction in acetylcholine-induced activity preincubated for 30 mins followed by addition of acetylcholine measured for 2 mins by Fluo-4AM dye based FLIPR assay; format: cell-based
T1 sequence (P46098 whole entry): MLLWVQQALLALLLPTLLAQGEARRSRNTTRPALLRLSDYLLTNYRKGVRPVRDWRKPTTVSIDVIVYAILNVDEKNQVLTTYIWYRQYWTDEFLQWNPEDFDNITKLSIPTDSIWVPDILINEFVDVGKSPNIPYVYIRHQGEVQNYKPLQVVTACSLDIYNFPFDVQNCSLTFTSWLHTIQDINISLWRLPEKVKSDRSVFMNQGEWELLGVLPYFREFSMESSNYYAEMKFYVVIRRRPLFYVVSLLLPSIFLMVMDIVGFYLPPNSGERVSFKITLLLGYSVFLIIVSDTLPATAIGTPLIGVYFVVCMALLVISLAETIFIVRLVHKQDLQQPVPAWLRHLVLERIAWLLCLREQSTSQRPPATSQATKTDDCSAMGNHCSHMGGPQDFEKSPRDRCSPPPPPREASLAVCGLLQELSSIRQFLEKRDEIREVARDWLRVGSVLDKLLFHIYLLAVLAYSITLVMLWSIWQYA

[3] = molecular target: T2, Neuronal acetylcholine receptor subunit alpha-7 (Rattus norvegicus, UniProt Q05941); test: Agonist activity at rat alpha7 nAChR expressed in HEK293 cells co-expressing human RIC3 measured for 2 mins by FLIPR assay; format: cell-based
[4] = molecular target: T2, Neuronal acetylcholine receptor subunit alpha-7; test: Partial agonist activity at rat alpha7 nAChR expressed in HEK293 cells co-expressing human RIC3 at holding potential of -90 mV by whole-cell voltage clamp technique; format: cell-based
5-HT3A = molecular target: T3, 5-HT3A (Homo sapiens, UniProt P46098); test: Antagonist activity at 5-HT3A (unknown origin) at 10 uM
T3 sequence (P46098 whole entry): T1 sequence (P46098 whole entry)

[5] = Selectivity ratio of IC50 for human 5-HT3A expressed in HEK293 cells to EC50 for rat alpha1beta1deltaepsilon nAChR expressed in HEK293 cells; format: ADME, cell-based
[6] = Metabolic stability in human microsomes assessed as compound remaining measured after 10 mins; format: ADME, Microsome; details: read-out: Stability
[7] = molecular target: T2, Neuronal acetylcholine receptor subunit alpha-7; test: Displacement of [125I]Tyr54-alpha-bungarotoxin from rat alpha7 nAChR expressed in HEK293 cell membranes co-expressing human RIC3 measured after 2 hrs by gamma counting method
[8] = molecular target: Nicotinic acetylcholine receptor alpha-1/beta-1/delta/epsilon (Rattus norvegicus, UniProt P09660+P25108+P25109+P25110); test: Agonist activity at rat alpha1beta1deltaepsilon nAChR expressed in HEK293 cells for 2 mins by FLIPR assay; format: cell-based
[9] = molecular target: Neuronal acetylcholine receptor; alpha4/beta2 (Rattus norvegicus, UniProt P09483+P12390); test: Agonist activity at rat alpha4beta2 nAChR expressed in HEK293 cells for 2 mins by FLIPR assay; format: cell-based
[10] = molecular target: Neuronal acetylcholine receptor; alpha3/beta4 (Rattus norvegicus, UniProt P04757+P12392); test: Agonist activity at rat alpha3beta4 nAChR expressed in HEK293 cells for 2 mins by FLIPR assay; format: cell-based
[11] = Drug uptake in Wistar rat brain at 10 mg/kg, sc measured after 30 mins by LC-MS/MS analysis; format: ADME, organism-based; details: read-out: Drug uptake
[12] = molecular target: Voltage-gated inwardly rectifying potassium channel KCNH2 (Homo sapiens, UniProt Q12809); test: Inhibition of human ERG by patch clamp assay
[13] = Clearance in rat; format: ADME; details: in vivo
[14] = Ratio of drug level in Wistar rat brain to plasma at 10 mg/kg, sc; format: ADME, organism-based; details: read-out: BPR
[15] = Metabolic stability in rat microsomes assessed as compound remaining measured after 10 mins; format: ADME, Microsome; details: read-out: Stability
[16] = Selectivity ratio of IC50 for human 5-HT3A expressed in HEK293 cells to EC50 for rat alpha3beta4 nAChR expressed in HEK293 cells; format: ADME, cell-based
[17] = Plasma concentration in Wistar rat at 10 mg/kg, sc measured after 30 mins by LC-MS/MS analysis; format: ADME, organism-based
Mus musculus = test: Cognitive enhancing effect in C57Bl/6 mouse at 3 and 10 mg/kg, sc administered 30 mins prior to training measured after 24 hrs by novel recognition assay; format: functional, organism-based
[18] = Metabolic stability in mouse microsomes assessed as compound remaining measured after 10 mins; format: ADME, Microsome; details: read-out: Stability
[19] = Oral bioavailability in rat at 10 mg/kg; format: ADME, organism-based; details: in vivo
[20] = Selectivity ratio of IC50 for human 5-HT3A expressed in HEK293 cells to EC50 for rat alpha4beta2 nAChR expressed in HEK293 cells; format: ADME, cell-based

T2 sequence (Q05941 whole entry): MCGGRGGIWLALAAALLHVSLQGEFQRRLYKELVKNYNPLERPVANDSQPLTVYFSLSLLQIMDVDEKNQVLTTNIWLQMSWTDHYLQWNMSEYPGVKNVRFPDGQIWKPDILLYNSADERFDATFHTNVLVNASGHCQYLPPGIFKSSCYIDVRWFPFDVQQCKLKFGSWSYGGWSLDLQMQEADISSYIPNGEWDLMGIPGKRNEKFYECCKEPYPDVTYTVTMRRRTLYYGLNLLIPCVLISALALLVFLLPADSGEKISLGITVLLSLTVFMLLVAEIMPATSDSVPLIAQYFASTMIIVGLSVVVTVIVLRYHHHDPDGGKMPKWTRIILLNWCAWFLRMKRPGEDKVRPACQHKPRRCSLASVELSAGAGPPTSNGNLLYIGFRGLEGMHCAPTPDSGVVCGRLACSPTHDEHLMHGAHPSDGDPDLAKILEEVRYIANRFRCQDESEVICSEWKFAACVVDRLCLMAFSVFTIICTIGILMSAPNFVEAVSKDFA
Sequence of Neuronal acetylcholine receptor; alpha4/beta2 (P09483 whole entry): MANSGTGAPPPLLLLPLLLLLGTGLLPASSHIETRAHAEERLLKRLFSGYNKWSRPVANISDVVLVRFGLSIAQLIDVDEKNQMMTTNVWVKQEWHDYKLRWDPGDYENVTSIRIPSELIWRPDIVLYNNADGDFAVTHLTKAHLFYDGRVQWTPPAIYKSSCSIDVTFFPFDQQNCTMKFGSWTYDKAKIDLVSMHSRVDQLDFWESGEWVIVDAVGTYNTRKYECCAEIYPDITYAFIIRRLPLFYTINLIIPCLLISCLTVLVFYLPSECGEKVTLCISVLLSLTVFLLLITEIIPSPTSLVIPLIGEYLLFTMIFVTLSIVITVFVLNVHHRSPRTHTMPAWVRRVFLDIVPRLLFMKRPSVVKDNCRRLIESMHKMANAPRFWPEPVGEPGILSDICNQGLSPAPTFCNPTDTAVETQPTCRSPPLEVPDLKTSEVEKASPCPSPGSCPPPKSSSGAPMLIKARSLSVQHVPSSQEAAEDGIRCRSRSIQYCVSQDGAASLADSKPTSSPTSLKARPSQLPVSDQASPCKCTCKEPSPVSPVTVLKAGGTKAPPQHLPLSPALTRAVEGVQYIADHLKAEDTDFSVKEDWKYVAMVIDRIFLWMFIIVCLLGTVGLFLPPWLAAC
Sequence of Neuronal acetylcholine receptor; alpha4/beta2 (P12390 whole entry): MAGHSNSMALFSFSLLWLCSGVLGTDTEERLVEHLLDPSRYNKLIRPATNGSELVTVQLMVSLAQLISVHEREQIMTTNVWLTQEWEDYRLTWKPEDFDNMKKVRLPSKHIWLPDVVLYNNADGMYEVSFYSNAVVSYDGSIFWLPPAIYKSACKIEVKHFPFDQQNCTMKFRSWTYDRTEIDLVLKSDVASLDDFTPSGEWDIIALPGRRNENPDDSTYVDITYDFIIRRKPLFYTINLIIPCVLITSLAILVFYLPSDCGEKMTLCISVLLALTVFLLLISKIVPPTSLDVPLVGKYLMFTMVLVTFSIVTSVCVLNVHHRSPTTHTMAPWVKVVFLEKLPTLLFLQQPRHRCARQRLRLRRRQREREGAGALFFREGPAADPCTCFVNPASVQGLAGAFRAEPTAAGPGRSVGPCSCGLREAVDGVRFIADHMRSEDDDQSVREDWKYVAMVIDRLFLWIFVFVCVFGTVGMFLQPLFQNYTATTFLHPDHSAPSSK
Sequence of Nicotinic acetylcholine receptor alpha-1/beta-1/delta/epsilon (P25109 whole entry): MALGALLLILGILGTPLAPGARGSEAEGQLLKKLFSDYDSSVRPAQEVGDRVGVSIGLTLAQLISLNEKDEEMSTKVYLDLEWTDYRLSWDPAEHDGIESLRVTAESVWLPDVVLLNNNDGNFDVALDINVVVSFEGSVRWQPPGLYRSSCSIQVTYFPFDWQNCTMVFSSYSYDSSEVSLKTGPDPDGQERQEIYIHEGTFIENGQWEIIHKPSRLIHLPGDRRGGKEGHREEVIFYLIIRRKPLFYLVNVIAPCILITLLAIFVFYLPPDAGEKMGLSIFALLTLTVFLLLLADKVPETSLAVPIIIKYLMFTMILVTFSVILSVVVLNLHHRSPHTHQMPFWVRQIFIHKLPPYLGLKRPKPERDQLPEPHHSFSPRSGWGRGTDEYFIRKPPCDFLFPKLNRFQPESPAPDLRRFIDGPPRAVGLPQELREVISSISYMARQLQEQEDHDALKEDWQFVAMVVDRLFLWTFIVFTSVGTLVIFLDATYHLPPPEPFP
Sequence of Nicotinic acetylcholine receptor alpha-1/beta-1/delta/epsilon (P25108 whole entry): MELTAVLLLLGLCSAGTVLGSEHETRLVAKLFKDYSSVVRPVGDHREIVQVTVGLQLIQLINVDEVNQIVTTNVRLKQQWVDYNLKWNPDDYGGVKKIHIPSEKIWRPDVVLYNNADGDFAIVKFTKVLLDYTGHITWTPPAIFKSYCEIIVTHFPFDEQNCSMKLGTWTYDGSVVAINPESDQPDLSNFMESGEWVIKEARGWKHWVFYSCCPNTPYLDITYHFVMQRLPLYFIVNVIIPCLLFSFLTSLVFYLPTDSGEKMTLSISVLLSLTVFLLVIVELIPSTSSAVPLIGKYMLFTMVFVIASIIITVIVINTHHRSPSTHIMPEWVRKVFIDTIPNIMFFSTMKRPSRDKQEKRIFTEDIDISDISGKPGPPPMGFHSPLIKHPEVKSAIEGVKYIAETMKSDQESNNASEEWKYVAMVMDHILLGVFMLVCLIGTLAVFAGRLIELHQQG
Sequence of Nicotinic acetylcholine receptor alpha-1/beta-1/delta/epsilon (P25110 whole entry): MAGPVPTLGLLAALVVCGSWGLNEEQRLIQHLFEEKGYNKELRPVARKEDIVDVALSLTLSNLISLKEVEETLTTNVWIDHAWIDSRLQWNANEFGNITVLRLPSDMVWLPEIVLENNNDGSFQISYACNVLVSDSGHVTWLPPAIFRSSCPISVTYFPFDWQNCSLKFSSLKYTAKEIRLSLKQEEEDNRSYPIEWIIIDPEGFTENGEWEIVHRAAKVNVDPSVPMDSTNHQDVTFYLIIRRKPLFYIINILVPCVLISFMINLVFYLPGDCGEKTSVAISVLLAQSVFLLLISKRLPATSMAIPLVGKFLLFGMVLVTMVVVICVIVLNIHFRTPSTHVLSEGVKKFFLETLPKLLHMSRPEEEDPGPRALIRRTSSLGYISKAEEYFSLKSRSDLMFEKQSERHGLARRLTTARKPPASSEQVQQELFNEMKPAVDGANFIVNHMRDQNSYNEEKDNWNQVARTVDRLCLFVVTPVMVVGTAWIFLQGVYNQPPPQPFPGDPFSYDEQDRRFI
Sequence of Nicotinic acetylcholine receptor alpha-1/beta-1/delta/epsilon (P09660 whole entry): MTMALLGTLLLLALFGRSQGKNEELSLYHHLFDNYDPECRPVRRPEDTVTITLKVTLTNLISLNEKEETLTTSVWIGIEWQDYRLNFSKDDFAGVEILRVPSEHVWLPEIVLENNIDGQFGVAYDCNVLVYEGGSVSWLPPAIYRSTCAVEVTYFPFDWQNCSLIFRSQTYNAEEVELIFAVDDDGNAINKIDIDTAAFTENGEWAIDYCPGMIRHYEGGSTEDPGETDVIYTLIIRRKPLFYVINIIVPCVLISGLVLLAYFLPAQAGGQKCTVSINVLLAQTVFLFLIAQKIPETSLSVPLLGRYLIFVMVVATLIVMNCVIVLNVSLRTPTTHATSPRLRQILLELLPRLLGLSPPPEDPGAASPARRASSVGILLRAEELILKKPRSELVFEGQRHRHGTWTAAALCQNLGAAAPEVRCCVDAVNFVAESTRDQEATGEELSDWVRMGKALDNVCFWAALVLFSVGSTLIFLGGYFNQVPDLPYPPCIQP
Sequence of Neuronal acetylcholine receptor; alpha3/beta4 (P04757 whole entry): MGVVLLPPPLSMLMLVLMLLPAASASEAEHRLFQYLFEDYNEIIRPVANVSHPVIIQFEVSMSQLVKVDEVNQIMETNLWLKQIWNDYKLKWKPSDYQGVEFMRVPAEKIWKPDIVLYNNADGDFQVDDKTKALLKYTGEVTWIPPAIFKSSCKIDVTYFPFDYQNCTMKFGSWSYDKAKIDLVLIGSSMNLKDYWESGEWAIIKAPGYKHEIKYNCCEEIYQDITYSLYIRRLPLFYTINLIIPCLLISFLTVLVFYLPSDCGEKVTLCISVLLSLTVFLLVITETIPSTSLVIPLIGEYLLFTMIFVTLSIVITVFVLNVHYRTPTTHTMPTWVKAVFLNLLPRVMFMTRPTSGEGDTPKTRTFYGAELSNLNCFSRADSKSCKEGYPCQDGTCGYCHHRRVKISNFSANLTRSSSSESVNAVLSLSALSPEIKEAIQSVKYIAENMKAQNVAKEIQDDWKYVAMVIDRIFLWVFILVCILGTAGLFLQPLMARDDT
Sequence of Neuronal acetylcholine receptor; alpha3/beta4 (P12392 whole entry): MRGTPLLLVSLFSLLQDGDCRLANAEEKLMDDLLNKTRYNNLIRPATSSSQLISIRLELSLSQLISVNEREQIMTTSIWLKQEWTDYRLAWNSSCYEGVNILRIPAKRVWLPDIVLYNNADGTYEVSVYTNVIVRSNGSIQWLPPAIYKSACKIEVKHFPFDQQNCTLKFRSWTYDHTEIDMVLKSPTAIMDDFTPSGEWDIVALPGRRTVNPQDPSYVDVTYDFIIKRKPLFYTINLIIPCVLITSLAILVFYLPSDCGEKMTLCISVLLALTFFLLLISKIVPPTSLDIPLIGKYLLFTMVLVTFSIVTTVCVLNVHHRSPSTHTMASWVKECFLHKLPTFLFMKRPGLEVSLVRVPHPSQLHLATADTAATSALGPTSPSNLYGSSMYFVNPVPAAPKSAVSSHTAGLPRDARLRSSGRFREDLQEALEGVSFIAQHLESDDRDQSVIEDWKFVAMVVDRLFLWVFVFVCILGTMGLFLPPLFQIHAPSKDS

SMILES	Ratio IC50/EC50 [1]	IC50 [2]	EC50 [3]	other results
CCOc1ccc2nc(NC3=NCC4(CN5CCC4CC5)O3)sc2c1 (configuration not stated)	42	14 µM	0.32 µM	
c1cncc(/N=C2\NCC3(CN4CCC3CC4)O2)c1 (racemic)	0.1	2.3 µM	21 µM	
c1ccc(-c2cnc(NC3=NCC4(CN5CCC4CC5)O3)s2)cc1 (racemic)	51 to 750	20 µM	0.4 µM	
COc1ccc2nc(NC3=NC4(CO3)CN3CCC4CC3)sc2c1 (configuration not stated)	6	47 µM	7.8 µM	
c1ccc2sc(NC3=NC[C@@]4(CN5CC[C@@H]4C5)O3)nc2c1	22	0.48 µM	0.022 µM	EC50 [4]: 0.28 µM
COc1ccc2sc(NC3=NCC4(CN5CCC4CC5)O3)nc2c1 (configuration not stated)	0.02	0.019 µM	1.1 µM	
c1nc2cc(NC3=NCC4(CN5CCC4CC5)O3)ccc2s1 (racemic)	13	41 µM	3.1 µM	
c1ccc(-c2csc(NC3=NCC4(CN5CCC4CC5)O3)n2)cc1 (racemic)	0.02	0.011 µM	0.45 µM	
c1ccc(-c2ccnc(NC3=NC[C@@]4(CN5CCC4CC5)O3)c2)cc1	9 to 9.6	0.085 µM		
c1ccc2sc(NC3=NCC4(CN5CCC4C5)O3)nc2c1 (racemic)	0.06	0.035 µM	0.26 µM	
c1ccc2nc(NC3=NC[C@@]4(CN5CCC4CC5)O3)ccc2c1	0.3	0.008 µM	0.026 µM	
Oc1ccc2nc(NC3=NCC4(CN5CCC4CC5)O3)sc2c1 (configuration not stated)	11	11 µM	0.98 µM	
c1ccc2sc(NC3=NCC4(CN5CCC[C@@H]4C5)O3)nc2c1 (mixture of isomers)	3	0.95 µM	0.29 µM	
c1ccc2sc(NC3=NC[C@]4(CN5CCC4CC5)O3)nc2c1	6	7.3 µM	1.3 µM	
COc1ccc2nc(NC3=NCCC4(CN5CCC4CC5)O3)sc2c1 (configuration not stated)	17	64 µM	3.7 µM	
c1ccc2c(NC3=NC[C@@]4(CN5CCC4CC5)O3)nccc2c1			0.21 µM	

SMILES	Ratio IC50/EC50 [1]	IC50 [2]	EC50 [3]	other results
COc1cc2nc(NC3=NCC4(CN5CCC4CC5)O3)sc2cc1OC (configuration not stated)	3	27 µM	11 µM	
c1ccc2sc(NC3=NCC4(CN5CCC4CC5)O3)nc2c1 (racemic)	1 to 1.8	0.021 to 0.036 µM	0.02 to 0.021 µM	EC50 [4]: 0.5 µM
c1ccc(-c2ccc(NC3=NC[C@@]4(CN5CCC4CC5)O3)nc2)cc1	30	22 µM	0.75 µM	
O=C1NC[C@@]2(CN3CCC2CC3)O1				inhibition at 10 µM (5-HT3A): 2.5%
COc1cccc2sc(NC3=NCC4(CN5CCC4CC5)O3)nc12 (configuration not stated)	0.02	0.013 µM	0.83 µM	
c1ccc2sc(NC3=NCC4(CN5CCCC4C5)O3)nc2c1 (racemic)	< 0.01	0.007 µM	0.7 µM	
Clc1ccc2nc(NC3=NCC4(CN5CCC4CC5)O3)sc2c1 (configuration not stated)	53	8.1 µM	0.15 µM	
COc1ccc2nc(NC3=NC[C@@]4(CN5CCC4CC5)O3)sc2c1	66	9.1 µM	0.14 µM	Ratio IC50/EC50 [5]: > 700; remaining at 10 min [6]: > 60%; Ki [7]: 0.038 to 0.051 µM; EC50 [8]: > 100 µM; EC50 [9]: > 100 µM; EC50 [10]: > 100 µM; concentration at 0.5 h [11]: 5.3 µM; IC50 [12]: 1.3 µM; clearance [13]: 19.2 L/h/kg; EC50 [4]: 0.4 µM; Kp [14]: 7; remaining at 10 min [15]: > 60%; Ratio IC50/EC50 [16]: > 700; concentration at 0.5 h [17]: 0.76 µM; Activity (Mus musculus): Active; remaining at 10 min [18]: > 60%; bioavailability [19]: 24%; Ratio IC50/EC50 [20]: > 700
c1ccc(NC2=NCC3(CN4CCC3CC4)O2)cc1 (racemic)	0.04	0.23 µM	5.4 µM	
COc1ccc2nc(NC3=NCC4(CN5CCC4CC5)O3)sc2c1 (configuration not stated)	153	19 µM	0.12 µM	EC50 [4]: 0.6 µM
c1ccc2sc(NC3=NC[C@@]4(CN5CCC4CC5)O3)nc2c1	1	0.021 µM	0.021 µM	
Cc1ccc2nc(NC3=NCC4(CN5CCC4CC5)O3)sc2c1 (configuration not stated)	32	3.8 µM	0.12 µM	
c1csc(NC2=NCC3(CN4CCC3CC4)O2)n1 (racemic)	0.1	0.025 µM	0.2 µM	EC50 [4]: 1.3 µM
c1cc(NC2=NCC3(CN4CCC3CC4)O2)ccn1 (racemic)	5	58 µM	11 µM	
COc1ccc2nc(/N=C3/OC4(CN5CCC4CC5)CN3C)sc2c1 (configuration not stated)		> 100 µM	> 100 µM	
COc1ccc2nc(NC3=NC[C@]4(CN5CCC4CC5)O3)sc2c1	85	> 97 µM	1.9 µM	
